# According to US20020192703A1, “Immunoassay reagents and methods for determination of LSD and LSD metabolites” (priority 1995, published 2002):
# Structures can show the parent of a compound that is named as a salt. Where two headings read alike, the source gives them in different places.
# Columns and labels:
# monoclonal antibody 19A7 = format: binding, mice
# Experimental: Cross-reactivity was tested by spiking various potential cross-reactants into human urine containing a preservative.
# [1] = Dilution analysis of sample containing LSD metabolite, CEDIA; format: binding; details: for LSD ng/ml CEDIA: LSD equivalents
# Experimental: (§1) In the following experiment, the results of the CEDIA® are compared with those of the DPC assay, and with those obtained using the Abuscreen® radioimmunoassay by Roche. While the amount of metabolite in the sample is not known in absolute terms, the behavior is tested by dilution analysis. Results are given in terms of LSD equivalents.
# [2] = Dilution analysis of sample containing LSD metabolite, DPC RIA; format: binding; details: LSD equivalents
# Experimental: as §1
# [3] = Dilution analysis of sample containing LSD metabolite, Abuscreen RIA (Roche); format: binding; details: LSD equivalents
# Experimental: as §1
# [4] = Concentration Added 10,000 ng/ml, 100 × observed dose / concentration added
# [5] = Concentration Added 10,000 ng/ml, in human urine
# [6] = Concentration Added 500,000 ng/ml, 100 × observed dose / concentration added
# [7] = Concentration Added 500,000 ng/ml, in human urine
# [8] = Concentration Added 100,000 ng/ml, 100 × observed dose / concentration added
# [9] = Concentration Added 100,000 ng/ml, in human urine
# [10] = sample containing the metabolite, essentially free of LSD parent by GC/MS, undiluted
# [11] = Concentration Added 50,000 ng/ml, 100 × observed dose / concentration added
# [12] = Concentration Added 50,000 ng/ml, in human urine
smiles,measurement,setting,value
CCN(CC)C(=O)[C@@H]1C=C2c3cccc4c3C(O)(C[C@H]2N(C)C1)C(=O)N4 (stereo partly shown) [2oxo-3hydroxy LSD],% Cross-Reactivity,"monoclonal antibody 19A7; Concentration Added 30 ng/ml, 100 × observed dose / concentration added",1.82%
same,Concentration Observed,"monoclonal antibody 19A7; Concentration Added 30 ng/ml, in human urine",0.55 ng/mL
CCCCCc1cc(O)c2c(c1)OC(C)(C)[C@@H]1CCC(C(=O)O)=C[C@@H]21 [11-nor-Δ^9-THC-COOH],% Cross-Reactivity,monoclonal antibody 19A7; [4],<0.0001%
same,Concentration Observed,monoclonal antibody 19A7; [5],0.0 ng/mL
CC(=O)Oc1ccccc1C(=O)O [Acetylsalicylic Acid],% Cross-Reactivity,monoclonal antibody 19A7; [6],<0.00001%
same,Concentration Observed,monoclonal antibody 19A7; [7],0.0 ng/mL
CC(C)C[C@H]1C(=O)N2CCC[C@H]2[C@]2(O)O[C@](NC(=O)[C@@H]3C=C4c5cccc6[nH]cc(c56)C[C@H]4N(C)C3)(C(C)C)C(=O)N12 [Alpha Ergotryptine],% Cross-Reactivity,monoclonal antibody 19A7; [6],0.00000%
same,Concentration Observed,monoclonal antibody 19A7; [7],0.25 ng/mL
CC1(C)S[C@@H]2[C@H](NC(=O)[C@H](N)c3ccc(O)cc3)C(=O)N2[C@H]1C(=O)O [Amoxicillin],% Cross-Reactivity,monoclonal antibody 19A7,<0.00001%
same,Concentration Observed,monoclonal antibody 19A7,0.0 ng/mL
CC(N)Cc1ccccc1 (stereo not shown) [Amphetamine],% Cross-Reactivity,monoclonal antibody 19A7; [6],<0.00001%
same,Concentration Observed,monoclonal antibody 19A7; [7],0.0 ng/mL
CN1[C@H]2CC[C@@H]1[C@@H](C(=O)O)[C@@H](OC(=O)c1ccccc1)C2 [Benzoylecgonine],% Cross-Reactivity,monoclonal antibody 19A7; [6],<0.00001%
same,Concentration Observed,monoclonal antibody 19A7; [7],0.0 ng/mL
C[C@H](CS)C(=O)N1CCC[C@H]1C(=O)O [Captopril],% Cross-Reactivity,monoclonal antibody 19A7; [6],<0.00001%
same,Concentration Observed,monoclonal antibody 19A7; [7],0.0 ng/mL
CN/C(=N/CCSCc1nc[nH]c1C)NC#N [Cimetidine],% Cross-Reactivity,monoclonal antibody 19A7,<0.00001%
same,Concentration Observed,monoclonal antibody 19A7,0.0 ng/mL
COc1ccc2c3c1O[C@H]1[C@@H](O)C=C[C@H]4[C@@H](C2)N(C)CC[C@@]341 [Codeine],% Cross-Reactivity,monoclonal antibody 19A7; [6],<0.00001%
same,Concentration Observed,monoclonal antibody 19A7; [7],0.0 ng/mL
CN1C(=O)CN=C(c2ccccc2)c2cc(Cl)ccc21 [Diazepam],% Cross-Reactivity,monoclonal antibody 19A7,<0.00001%
same,Concentration Observed,monoclonal antibody 19A7,0.0 ng/mL
C[C@H]1O[C@@H](O[C@H]2[C@@H](O)C[C@H](O[C@H]3[C@@H](O)C[C@H](O[C@H]4CC[C@@]5(C)[C@H](CC[C@@H]6[C@@H]5C[C@@H](O)[C@]5(C)[C@@H](C7=CC(=O)OC7)CC[C@]65O)C4)O[C@@H]3C)O[C@@H]2C)C[C@H](O)[C@@H]1O [Digoxin],% Cross-Reactivity,monoclonal antibody 19A7; [8],<0.00001%
same,Concentration Observed,monoclonal antibody 19A7; [9],0.0 ng/mL
CN1C[C@H](C(=O)N[C@]2(C)O[C@@]3(O)[C@@H]4CCCN4C(=O)[C@H](Cc4ccccc4)N3C2=O)C[C@@H]2c3cccc4[nH]cc(c34)C[C@H]21 [Dihydroergotaimine],% Cross-Reactivity,"monoclonal antibody 19A7; Concentration Added 125,000 ng/ml, 100 × observed dose / concentration added",0.00005%
same,Concentration Observed,"monoclonal antibody 19A7; Concentration Added 125,000 ng/ml, in human urine",≦0.01 ng/mL
COC(=O)[C@@H]1[C@H]2CC[C@@H](C[C@@H]1O)N2C [Ecogonine Methyl Ester],% Cross-Reactivity,monoclonal antibody 19A7; [8],0.00000%
same,Concentration Observed,monoclonal antibody 19A7; [9],≦0.01 ng/mL
CN1[C@H]2CC[C@@H]1[C@@H](C(=O)O)[C@@H](O)C2 [Ecogonine],% Cross-Reactivity,monoclonal antibody 19A7; [8],0.00000%
same,Concentration Observed,monoclonal antibody 19A7; [9],≦0.01 ng/mL
CCOC(=O)[C@H](CCc1ccccc1)N[C@@H](C)C(=O)N1CCC[C@H]1C(=O)O [Enalapril],% Cross-Reactivity,monoclonal antibody 19A7; [6],<0.00001%
same,Concentration Observed,monoclonal antibody 19A7; [7],0.0 ng/mL
C[C@@H](CO)NC(=O)[C@@H]1C=C2c3cccc4[nH]cc(c34)C[C@H]2N(C)C1 [Ergonovine],% Cross-Reactivity,monoclonal antibody 19A7; [4],0.007%
same,Concentration Observed,monoclonal antibody 19A7; [5],0.58 ng/mL
CN1C[C@H](C(=O)N[C@]2(C)O[C@@]3(O)[C@@H]4CCCN4C(=O)[C@H](Cc4ccccc4)N3C2=O)C=C2c3cccc4[nH]cc(c34)C[C@H]21 [Ergotamine],% Cross-Reactivity,monoclonal antibody 19A7; [8],0.00000%
same,Concentration Observed,monoclonal antibody 19A7; [9],≦0.01 ng/mL
CNCCC(Oc1ccc(C(F)(F)F)cc1)c1ccccc1 (stereo not shown) [Fluoxetine],% Cross-Reactivity,"monoclonal antibody 19A7; Concentration Added 400000 ng/mL, 100 × observed dose / concentration added",0.00012%
same,Concentration Observed,"monoclonal antibody 19A7; Concentration Added 400000 ng/mL, in human urine",0.48 ng/mL
CC(C)Cc1ccc(C(C)C(=O)O)cc1 (stereo not shown) [Ibuprofen],% Cross-Reactivity,monoclonal antibody 19A7; [6],<0.00001%
same,Concentration Observed,monoclonal antibody 19A7; [7],0.0 ng/mL
CCN(CC)C(=O)[C@H]1C=C2c3cccc4[nH]cc(c34)C[C@H]2N(C)C1 [Iso LSD],% Cross-Reactivity,"monoclonal antibody 19A7; Concentration Added 2,500 ng/ml, 100 × observed dose / concentration added",0.04%
same,Concentration Observed,"monoclonal antibody 19A7; Concentration Added 2,500 ng/ml, in human urine",0.93 ng/mL
CCN(CC)C(=O)[C@@H]1C=C2c3cccc4c3C(O)(C[C@H]2N(C)C1)C(=O)N4 (stereo partly shown) [LSD Metabolite],recognition of the metabolite by reagents of the invention relative to the Abuscreen assay,[1]; CEDIA versus Abuscreen RIA,about 2.5 fold
same,recognition of the metabolite by reagents of the invention relative to the DPC assay,[1]; CEDIA versus DPC RIA,about 10 fold
same,LSD ng/ml CEDIA,[1]; metabolite sample diluted 1:3,0.50 ng/mL
same,LSD ng/ml CEDIA,[1]; [10],1.32 ng/mL
same,LSD ng/ml DPC RIA,[2]; metabolite sample diluted 1:3,0.03 ng/mL
same,LSD ng/ml DPC RIA,[2]; [10],0.14 ng/mL
same,LSD ng/ml Abuscreen RIA,[3]; metabolite sample diluted 1:3,0.23 ng/mL
same,LSD ng/ml Abuscreen RIA,[3]; [10],0.62 ng/mL
"N[C@@H](Cc1cc(I)c(Oc2cc(I)c(O)c(I)c2)c(I)c1)C(=O)O [Levothyroxine (T4), Levothyroxine]",% Cross-Reactivity,monoclonal antibody 19A7; [11],<0.0001%
same,Concentration Observed,monoclonal antibody 19A7; [12],0.0 ng/mL
CN1C[C@H](C(=O)O)C=C2c3cccc4[nH]cc(c34)C[C@H]21 [Lysergic Acid],% Cross-Reactivity,monoclonal antibody 19A7,0.00000%
same,Concentration Observed,monoclonal antibody 19A7,≦0.01 ng/mL
CN1C[C@H](CO)C=C2c3cccc4[nH]cc(c34)C[C@H]21 [Lysergol],% Cross-Reactivity,"monoclonal antibody 19A7; Concentration Added 5,000 ng/ml, 100 × observed dose / concentration added",0.00034%
same,Concentration Observed,"monoclonal antibody 19A7; Concentration Added 5,000 ng/ml, in human urine",0.01 ng/mL
CN[C@@H](C)Cc1ccccc1 [Methamphetamine],% Cross-Reactivity,"monoclonal antibody 19A7; Concentration Added 200000 ng/mL, 100 × observed dose / concentration added",0.00019%
same,Concentration Observed,"monoclonal antibody 19A7; Concentration Added 200000 ng/mL, in human urine",0.45 ng/mL
CC[C@@H](CO)NC(=O)[C@@H]1C=C2c3cccc4c3c(cn4C)C[C@H]2N(C)C1 [Methysergide Maleate],% Cross-Reactivity,monoclonal antibody 19A7; [11],0.00147%
same,Concentration Observed,monoclonal antibody 19A7; [12],0.74 ng/mL
CN1CC[C@]23c4c5ccc(O)c4O[C@H]2[C@@H](O)C=C[C@H]3[C@H]1C5 [Morphine],% Cross-Reactivity,monoclonal antibody 19A7,<0.00001%
same,Concentration Observed,monoclonal antibody 19A7,0.0 ng/mL
c1ccc(C2(N3CCCCC3)CCCCC2)cc1 [Phencyclidine],% Cross-Reactivity,monoclonal antibody 19A7; [6],0.00002%
same,Concentration Observed,monoclonal antibody 19A7; [7],0.11 ng/mL
CN(C)CCc1c[nH]c2cccc(O)c12 [Psilocyn],% Cross-Reactivity,monoclonal antibody 19A7; [4],0.00000%
same,Concentration Observed,monoclonal antibody 19A7; [5],≦0.01 ng/mL
C=CCC1(C(C)CCC)C(=O)NC(=O)NC1=O (stereo not shown) [Secobarbital],% Cross-Reactivity,monoclonal antibody 19A7; [6],<0.00001%
same,Concentration Observed,monoclonal antibody 19A7; [7],0.0 ng/mL
NCCc1c[nH]c2ccc(O)cc12 [Seretonine],% Cross-Reactivity,"monoclonal antibody 19A7; Concentration Added 1,000,000 ng/ml, 100 × observed dose / concentration added",0.00000%
same,Concentration Observed,"monoclonal antibody 19A7; Concentration Added 1,000,000 ng/ml, in human urine",≦0.01 ng/mL
Cc1ccc(C(=O)c2ccc(CC(=O)O)n2C)cc1 [Tolmetin],% Cross-Reactivity,monoclonal antibody 19A7; [6],<0.00001%
same,Concentration Observed,monoclonal antibody 19A7; [7],0.0 ng/mL
N[C@@H](Cc1c[nH]c2ccccc12)C(=O)O [Tryptophan],% Cross-Reactivity,monoclonal antibody 19A7; [8],0.00000%
same,Concentration Observed,monoclonal antibody 19A7; [9],≦0.01 ng/mL
"CCCN(C)C(=O)[C@@H]1C=C2c3cccc4[nH]cc(c34)C[C@H]2N(C)C1 [d-LAMPA, Lysergic acid methyl-propyl amide]",% Cross-Reactivity,"monoclonal antibody 19A7; Concentration Added 0.5 ng/ml, 100 × observed dose / concentration added",58.7%
same,Concentration Observed,"monoclonal antibody 19A7; Concentration Added 0.5 ng/ml, in human urine",0.29 ng/mL
